According to ChEMBL document CHEMBL2321853, “Novel acylethanolamide derivatives that modulate body weight through enhancement of hypothalamic pro-opiomelanocortin (POMC) and/or decreased neuropeptide Y (NPY)” (J Med Chem, 2013):
Activity calls are given as the source filed them. The calls are words filed in the database; no cut-off is given here.

How the values were obtained:
Mus musculus [1] = assay: Increase in motor activity Sabra mouse at 1 mg/kg, ip administered on day 8, 9, 10, 11, 14, 18, 24 and 32 measured on day 14 by open field test; assay type: functional, organism-based; design: dose 1 mg/kg
Hypothalamus [2] = assay: Effect on FAAH gene expression in Sabra mouse hypothalamus assessed as change in mRNA level at 1 mg/kg, ip administered on day 8, 9, 10, 11, 14, 18, 24 and 32 by RT-PCR analysis relative to GAPDH; assay type: functional; conditions: route intraperitoneal
Mus musculus [3] = assay: Antiobesity activity in Sabra mouse assessed as change in body weight at 1 mg/kg, ip administered on day 8, 9, 10, 11, 14, 18, 24 and 32 measured on day 14 relative to control; assay type: functional; conditions: route intraperitoneal
Hypothalamus [4] = assay: Effect on NPY gene expression in Sabra mouse hypothalamus assessed as change in mRNA level at 1 mg/kg, ip administered on day 8, 9, 10, 11, 14, 18, 24 and 32 by RT-PCR analysis relative to GAPDH; assay type: functional; conditions: route intraperitoneal
Hypothalamus [5] = assay: Effect on POMC gene expression in Sabra mouse hypothalamus assessed as change in mRNA level at 1 mg/kg, ip administered on day 8, 9, 10, 11, 14, 18, 24 and 32 by RT-PCR analysis relative to GAPDH; assay type: functional; conditions: route intraperitoneal
Mus musculus [6] = assay: Antiobesity activity in Sabra mouse assessed as change in food consumption at 1 mg/kg, ip administered on day 8, 9, 10, 11, 14, 18, 24 and 32 measured after 2 weeks relative to control; assay type: functional; conditions: route intraperitoneal
Mus musculus [7] = assay: Antiobesity activity in Sabra mouse assessed as change in body weight at 1 mg/kg, ip administered on day 8, 9, 10, 11, 14, 18, 24 and 32 measured on day 39 relative to control; assay type: functional; conditions: route intraperitoneal
Mus musculus [8] = assay: Antiobesity activity in Sabra mouse assessed as change in food consumption at 1 mg/kg, ip administered on day 8, 9, 10, 11, 14, 18, 24 and 32 measured after 4 weeks relative to control; assay type: functional; conditions: route intraperitoneal
Mus musculus [9] = assay: Antiobesity activity in Sabra mouse assessed as change in body weight at 1 mg/kg, ip administered on day 8, 9, 10, 11, 14, 18, 24 and 32 measured on day 4 relative to control; assay type: functional; conditions: route intraperitoneal
Mus musculus [10] = assay: Antiobesity activity in Sabra mouse assessed as change in body weight at 1 mg/kg, ip administered on day 8, 9, 10, 11, 14, 18, 24 and 32 measured on day 25 relative to control; assay type: functional; conditions: route intraperitoneal
[11] = target: T1, Peroxisome proliferator-activated receptor alpha (Homo sapiens) (UniProt Q07869); assay: Binding affinity to human recombinant PPARalpha expressed in Escherichia coli at 10 uM for 16 hrs by spectrofluorimetric analysis relative to control
T1 sequence (whole entry): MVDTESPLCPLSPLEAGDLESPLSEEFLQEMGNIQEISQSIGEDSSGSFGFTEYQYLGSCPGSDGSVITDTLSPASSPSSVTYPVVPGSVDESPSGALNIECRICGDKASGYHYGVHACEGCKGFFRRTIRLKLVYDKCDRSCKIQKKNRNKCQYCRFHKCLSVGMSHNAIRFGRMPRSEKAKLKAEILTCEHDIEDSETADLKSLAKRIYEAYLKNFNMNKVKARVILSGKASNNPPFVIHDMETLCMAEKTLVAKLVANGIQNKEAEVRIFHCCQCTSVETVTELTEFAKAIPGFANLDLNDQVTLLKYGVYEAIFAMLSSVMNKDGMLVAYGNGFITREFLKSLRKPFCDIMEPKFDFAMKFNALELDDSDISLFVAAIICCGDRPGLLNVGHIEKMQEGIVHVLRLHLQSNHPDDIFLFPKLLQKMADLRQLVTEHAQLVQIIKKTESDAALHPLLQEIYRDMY

Hypothalamus [12] = assay: Effect on CAMKK2 gene expression in Sabra mouse hypothalamus assessed as change in mRNA level at 1 mg/kg, ip administered on day 8, 9, 10, 11, 14, 18, 24 and 32 by RT-PCR analysis relative to GAPDH; assay type: functional; conditions: route intraperitoneal
Mus musculus [13] = assay: Antiobesity activity in Sabra mouse assessed as change in body weight at 1 mg/kg, ip administered on day 8, 9, 10, 11, 14, 18, 24 and 32 measured on day 9 relative to control; assay type: functional; conditions: route intraperitoneal
Mus musculus [14] = assay: Antiobesity activity in Sabra mouse assessed as change in food consumption at 1 mg/kg, ip administered on day 8, 9, 10, 11, 14, 18, 24 and 32 measured after 5 weeks relative to control; assay type: functional; conditions: route intraperitoneal
[15] = target: T2, Fatty-acid amide hydrolase 1 (Rattus norvegicus) (UniProt P97612); assay: Inhibition of rat brain FAAH using [3H]anandamide as substrate at 10 uM preincubated for 15 mins before substrate addition relative to control
T2 sequence (whole entry): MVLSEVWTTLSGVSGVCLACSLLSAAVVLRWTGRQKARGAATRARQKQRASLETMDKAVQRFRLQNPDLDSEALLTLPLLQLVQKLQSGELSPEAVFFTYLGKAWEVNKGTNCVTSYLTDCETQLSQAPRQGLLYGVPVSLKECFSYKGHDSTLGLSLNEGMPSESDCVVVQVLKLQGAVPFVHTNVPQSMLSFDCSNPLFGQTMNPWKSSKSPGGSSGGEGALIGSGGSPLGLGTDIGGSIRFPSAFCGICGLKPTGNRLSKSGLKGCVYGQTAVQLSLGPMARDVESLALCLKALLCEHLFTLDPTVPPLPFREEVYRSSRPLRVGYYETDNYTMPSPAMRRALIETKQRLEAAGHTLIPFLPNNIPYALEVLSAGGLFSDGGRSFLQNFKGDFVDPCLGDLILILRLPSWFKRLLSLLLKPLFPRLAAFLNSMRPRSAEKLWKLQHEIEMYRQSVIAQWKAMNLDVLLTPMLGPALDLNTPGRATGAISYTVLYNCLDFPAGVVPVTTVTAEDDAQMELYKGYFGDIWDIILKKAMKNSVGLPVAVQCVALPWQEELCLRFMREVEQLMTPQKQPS

Mus musculus [16] = assay: Antiobesity activity in Sabra mouse assessed as change in body weight at 1 mg/kg, ip administered on day 8, 9, 10, 11, 14, 18, 24 and 32 measured on day 35 relative to control; assay type: functional; conditions: route intraperitoneal
[17] = target: Cannabinoid receptor 2 (Homo sapiens) (UniProt P34972); assay: Displacement of [3H]WIN-55,212-2 from human recombinant CB2 receptor expressed in CHO-K1 cells at 10 uM relative to control; assay type: cell-based
Sequence of Cannabinoid receptor 2 (Homo sapiens) (P34972 whole entry): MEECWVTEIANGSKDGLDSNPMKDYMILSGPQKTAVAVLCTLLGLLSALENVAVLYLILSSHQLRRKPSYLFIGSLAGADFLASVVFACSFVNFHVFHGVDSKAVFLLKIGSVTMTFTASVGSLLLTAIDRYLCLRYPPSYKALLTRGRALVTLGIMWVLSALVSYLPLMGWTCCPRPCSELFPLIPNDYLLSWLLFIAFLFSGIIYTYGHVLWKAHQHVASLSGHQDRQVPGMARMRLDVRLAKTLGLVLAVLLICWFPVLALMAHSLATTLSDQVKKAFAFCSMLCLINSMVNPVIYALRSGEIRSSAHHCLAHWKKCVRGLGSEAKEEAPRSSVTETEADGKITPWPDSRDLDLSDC

Mus musculus [18] = assay: Antiobesity activity in Sabra mouse assessed as change in food consumption at 1 mg/kg, ip administered on day 8, 9, 10, 11, 14, 18, 24 and 32 measured after 3 weeks relative to control; assay type: functional; conditions: route intraperitoneal
Hypothalamus [19] = assay: Effect on CART gene expression in Sabra mouse hypothalamus assessed as change in mRNA level at 1 mg/kg, ip administered on day 8, 9, 10, 11, 14, 18, 24 and 32 by RT-PCR analysis relative to GAPDH; assay type: functional; conditions: route intraperitoneal
Mus musculus [20] = assay: Antiobesity activity in Sabra mouse assessed as change in body weight at 1 mg/kg, ip administered on day 8, 9, 10, 11, 14, 18, 24 and 32 measured on day 21 relative to control; assay type: functional; conditions: route intraperitoneal
Mus musculus [21] = assay: Antiobesity activity in Sabra mouse assessed as change in food consumption at 1 mg/kg, ip administered on day 8, 9, 10, 11, 14, 18, 24 and 32 measured after 6 weeks relative to control; assay type: functional; conditions: route intraperitoneal
Hypothalamus [22] = assay: Effect on 5HT1A gene expression in Sabra mouse hypothalamus assessed as change in mRNA level at 1 mg/kg, ip administered on day 8, 9, 10, 11, 14, 18, 24 and 32 by RT-PCR analysis relative to GAPDH; assay type: functional; conditions: route intraperitoneal
Mus musculus [23] = assay: Antiobesity activity in Sabra mouse assessed as change in body weight at 1 mg/kg, ip administered on day 8, 9, 10, 11, 14, 18, 24 and 32 measured on day 30 relative to control; assay type: functional; conditions: route intraperitoneal
[24] = target: Cannabinoid receptor 1 (Homo sapiens) (UniProt P21554); assay: Displacement of [3H]SR141716A from human CB1 receptor expressed in rat Chem-1 cell membrane at 10 uM relative to control; assay type: cell membranes
Sequence of Cannabinoid receptor 1 (Homo sapiens) (P21554 whole entry): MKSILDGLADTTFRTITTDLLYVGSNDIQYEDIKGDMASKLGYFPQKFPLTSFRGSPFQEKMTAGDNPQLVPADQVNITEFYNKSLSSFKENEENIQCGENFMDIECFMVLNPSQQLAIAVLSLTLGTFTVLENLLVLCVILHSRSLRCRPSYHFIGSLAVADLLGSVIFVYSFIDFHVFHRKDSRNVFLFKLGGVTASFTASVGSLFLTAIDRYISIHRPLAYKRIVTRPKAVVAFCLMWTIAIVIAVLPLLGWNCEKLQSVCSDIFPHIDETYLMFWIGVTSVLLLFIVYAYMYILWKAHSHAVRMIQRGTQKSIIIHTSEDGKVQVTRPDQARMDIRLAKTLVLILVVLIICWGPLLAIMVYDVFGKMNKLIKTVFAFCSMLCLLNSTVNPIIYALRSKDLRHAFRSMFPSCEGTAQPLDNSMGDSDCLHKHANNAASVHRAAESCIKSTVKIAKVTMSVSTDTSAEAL

[25] = target: Transient receptor potential cation channel subfamily V member 1 (Rattus norvegicus) (UniProt O35433); assay: Displacement of [3H]resiniferatoxin from TRPV1 receptor in Wistar rat spinal cord at 10 uM relative to control
Sequence of Transient receptor potential cation channel subfamily V member 1 (Rattus norvegicus) (O35433 whole entry): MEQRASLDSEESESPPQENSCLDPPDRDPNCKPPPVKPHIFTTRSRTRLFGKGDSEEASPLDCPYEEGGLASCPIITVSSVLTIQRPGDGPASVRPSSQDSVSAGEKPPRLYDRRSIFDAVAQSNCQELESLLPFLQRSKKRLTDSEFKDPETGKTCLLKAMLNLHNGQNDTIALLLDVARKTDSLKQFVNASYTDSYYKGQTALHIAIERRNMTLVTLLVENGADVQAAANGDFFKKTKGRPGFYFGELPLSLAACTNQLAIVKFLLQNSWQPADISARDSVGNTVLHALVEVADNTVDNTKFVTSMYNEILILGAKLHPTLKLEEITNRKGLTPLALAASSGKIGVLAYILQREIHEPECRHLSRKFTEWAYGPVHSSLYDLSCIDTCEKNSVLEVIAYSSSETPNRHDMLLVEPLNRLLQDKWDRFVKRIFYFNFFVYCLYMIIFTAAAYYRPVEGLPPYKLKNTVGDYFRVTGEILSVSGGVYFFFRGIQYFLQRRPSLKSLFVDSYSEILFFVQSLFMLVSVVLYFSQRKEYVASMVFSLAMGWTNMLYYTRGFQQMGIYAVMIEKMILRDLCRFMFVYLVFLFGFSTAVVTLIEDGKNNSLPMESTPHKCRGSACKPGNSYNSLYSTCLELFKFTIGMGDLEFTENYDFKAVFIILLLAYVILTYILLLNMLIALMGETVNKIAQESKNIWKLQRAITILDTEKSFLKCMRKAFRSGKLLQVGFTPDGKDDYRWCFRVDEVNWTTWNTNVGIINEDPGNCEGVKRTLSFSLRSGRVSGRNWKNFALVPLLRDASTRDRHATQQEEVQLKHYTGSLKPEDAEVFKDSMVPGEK

SMILES	Activity (Hypothalamus [2]) [%]	Activity (Mus musculus [3]) [%]	Activity (Hypothalamus [4]) [%]	Activity (Hypothalamus [5]) [%]	Activity (Mus musculus [6]) [%]	Activity (Mus musculus [7]) [%]	Activity (Mus musculus [8]) [%]	Activity (Mus musculus [9]) [%]	Activity (Mus musculus [10]) [%]	Activity [11] [%]	Activity (Hypothalamus [12]) [%]	Activity (Mus musculus [13]) [%]	Activity (Mus musculus [14]) [%]	Activity (Mus musculus [16]) [%]	inhibition [17] [%]	Activity (Mus musculus [18]) [%]	Activity (Hypothalamus [19]) [%]	Activity (Mus musculus [20]) [%]	Activity (Mus musculus [21]) [%]	Activity (Hypothalamus [22]) [%]	also measured
CCCCCCCC/C=C/CCCCCCCC(=O)N[C@@H](CO)C(C)C	-46	-0.3	-9	5	102.9	-1	108	-2.3	-1.1	0	8	-1.7	111.4	1.4	0	112	25	-1	109.1	-18	Activity (Mus musculus [1]): inactive; inhibition [15]: 13%; Activity (Mus musculus [23]): 0.2%; inhibition [24]: 7%
CCCCCCCCCCCCCCCCCC(=O)N[C@H](CO)C(C)C	-26	-1.4	-39	43	96	-6	85.7	2.1	-5.3	0	-14	0.9	100.5	-7.8	6	93.8	2	-1.8	82.5	-16	Activity (Mus musculus [1]): inactive; inhibition [25]: -9%; inhibition [15]: 0%; Activity (Mus musculus [23]): -5.8%; inhibition [24]: 6%
CCCCCCCCCCCCCCCC(=O)N[C@H](CO)C(C)C	15	-2.2	-52	2	97	-6.7	85.9	1.9	-4.9	2	15	-2.1	97.4	-8.5	0	96.8	-13	3	81.4	-1	Activity (Mus musculus [1]): inactive; Activity (Mus musculus [23]): -7.1%; inhibition [24]: 21%
CCCCCCCC/C=C/CCCCCCCC(=O)N[C@H](CO)C(C)C	15	1	69	10	98.5	0	104.9	3.1	0.7	0	62	-0.1	109.2	1.6	5	108.1	-11	-0.1	104.5	-9	inhibition [25]: 6%; inhibition [15]: 7%; Activity (Mus musculus [23]): 0.2%; inhibition [24]: 8%
CCCCCCCC/C=C\CCCCCCCC(=O)N[C@@H](CO)C(C)C	-28	-3.1	8	31	79.4	-6.7	81.8	0.4	-3.3	0	-2	-0.8	80.6	-6	5	78.1	44	-1.7	77.3	17	Activity (Mus musculus [1]): Active; inhibition [25]: 3%; inhibition [15]: 8%; Activity (Mus musculus [23]): -4.7%; inhibition [24]: 36%
